Where two headings read alike, the source gives them in different places.
Tests used:
Type in all cases: in vivo
[1] = tested on: Megoura viciae; assay: Vetch aphid (Megoura viciae) control through contact or systemic means, broad bean leaf disks; settings: foliar, 120 h, read-out: mortality in comparison with untreated controls (aphid mortality)
Protocol: Vetch Aphid (Megoura viciae)
For evaluating control of vetch aphid (Megoura viciae) through contact or systemic means the test unit consisted of 24-well-microtiter plates containing broad bean leaf disks.
The compounds were formulated using a solution containing 75% v/v water and 25% v/v DMSO. Different concentrations of formulated compounds were sprayed onto the leaf disks at 2.5 μl, using a custom built micro atomizer, at two replications. After application, the leaf disks were air-dried and 5-8 adult aphids placed on the leaf disks inside the microtiter plate wells. The aphids were then allowed to suck on the treated leaf disks and incubated at about 23±1° C. and about 50±5% relative humidity for 5 days. Aphid mortality and fecundity was then visually assessed.

[2] = tested on: Myzus persicae; assay: Green peach aphid (Myzus persicae) control through systemic means, artificial diet under membrane; settings: 72 h, read-out: mortality in comparison with untreated controls (aphid mortality)
From the text: Green Peach Aphid (Myzus persicae)
For evaluating control of green peach aphid (Myzus persicae) through systemic means the test unit consisted of 96-well-microtiter plates containing liquid artificial diet under an artificial membrane. The compounds were formulated using a solution containing 75% v/v water and 25% v/v DMSO. Different concentrations of formulated compounds were pipetted into the aphid diet, using a custom built pipetter, at two replications. After application, 5-8 adult aphids were placed on the artificial membrane inside the microtiter plate wells. The aphids were then allowed to suck on the treated aphid diet and incubated at about 23±1° C. and about 50±5% relative humidity for 3 days. Aphid mortality and fecundity was then visually assessed.

[3] = tested on: Heliothis virescens; assay: Tobacco budworm (Heliothis virescens) control, 96-well microtiter plate with insect diet and eggs; settings: 120 h, sprayed onto insect diet, 5 days, visually assessed, read-out: mortality in comparison with untreated controls (egg and larval mortality)
Protocol: Tobacco Budworm (Heliothis virescens)
(§1) For evaluating control of tobacco budworm (Heliothis virescens) the test unit consisted of 96-well-microtiter plates containing an insect diet and 15-25 H. virescens eggs. The compounds were formulated using a solution containing 75% v/v water and 25% v/v DMSO. Different concentrations of formulated compounds were sprayed onto the insect diet at 10 μl, using a custom built micro atomizer, at two replications. After application, microtiter plates were incubated at about 28±1° C. and about 80±5% relative humidity for 5 days. Egg and larval mortality was then visually assessed.

[4] = tested on: Anthonomus grandis; assay: Boll weevil (Anthonomus grandis) control, 96-well microtiter plate with insect diet and eggs; settings: 120 h, sprayed onto insect diet, 5 days, visually assessed, read-out: mortality in comparison with untreated controls (egg and larval mortality)
Protocol: Boll Weevil (Anthonomus grandis)
as §1, with “boll weevil (Anthonomus grandis)” for “tobacco budworm (Heliothis virescens)”, “5-10 A. grandis” for “15-25 H. virescens”, “5” for “10”, “25±1°” for “28±1°”, “75±5%” for “80±5%”

[5] = 2500 ppm, sprayed onto leaf disks, 5 days, visually assessed
[6] = 2500 ppm, pipetted into aphid diet, 3 days, visually assessed

Structure (SMILES)	mortality at 2500 ppm [1]	mortality at 2500 ppm [2]	mortality at 2500 ppm [3]	mortality at 2500 ppm [1, 5]	mortality at 2500 ppm [2, 6]	mortality at 2500 ppm [4]
CCn1c([O-])c(C(=O)c2ccccc2)[n+]2c1SCC2c1ccc(Cl)nc1 (centres unmarked) [Compound C-1, 5-benzoyl-3-(6-chloro-3-pyridyl)-7-ethyl-2,3-dihydroimidazo[2,1-b]thiazol-4-ium-6-olate]	> 75%	> 75%				
CC(=O)c1c([O-])[n+](C)c2n1C(c1cnc(Cl)s1)CS2 (centres unmarked) [Compound C-2]	> 75%	> 75%				
C[n+]1c([O-])c(C(=O)C(F)F)n2c1SCC2c1cnc(Cl)s1 (centres unmarked) [Compound C-3]	> 75%	> 75%	> 75%			
C[n+]1c([O-])c(C(=O)c2ccccc2)n2c1SCC2CC#N (centres unmarked) [Compound C-4]				> 75%	> 75%	
CC[n+]1c([O-])c(C(=O)C(F)(F)C(F)(F)F)n2c1SCC2c1ccc(Cl)nc1 (centres unmarked) [Compound C-6]	> 75%	> 75%	> 75%			> 75%
CC[n+]1c([O-])c(C(=O)c2cccs2)n2c1SCC2c1ccc(Cl)nc1 (centres unmarked) [Compound C-7]	> 75%	> 75%				> 75%
CC[n+]1c([O-])c(C(C)=O)n2c1SCC2c1ccc(Cl)nc1 (centres unmarked) [Compound C-8]	> 75%	> 75%				> 75%
C[n+]1c([O-])c(C(=O)C(=O)OCC(F)(F)F)n2c1SC[C@@H]2c1cnc(Cl)s1 [Compound C-9]				> 75%	> 75%	
CC[n+]1c([O-])c(C(=O)C(=O)OCC(F)(F)F)n2c1SCC2c1ccc(Cl)nc1 (centres unmarked) [Compound C-10]	> 75%	> 75%				
CCOC(=O)C(=O)C1=C(O)N(C)C2N(C)CC(c3cnc(Cl)s3)N12 (centres unmarked) [Compound C-12]		> 75%	> 75%			> 75%

— US20220202017A1, “MESOIONIC IMIDAZOLIUM COMPOUNDS AND DERIVATIVES FOR COMBATING ANIMAL PESTS” (BASF SE, priority 2019, published 2022)
